Assay [1] deals with CT-26 colorectal cancer cells. Briefly: subcutaneous tumorigenesis experiment with SX-pretreated colorectal cancer cells. The assay is classed as in vivo, mice. Conditions: cells treated with 10 μM SX for 7 d. The method, then:
(§1) Experimental method and steps: Cancer cells were treated with salmeterol xinafoate (SX) in vitro for 3-7 d, and a subcutaneous or orthotopic tumorigenesis experiment was conducted on mice.
CT-26 colorectal cancer cells were treated with 10 μM salmeterol xinafoate (SX) for 7 d, and cells (1×10^5/mouse) were subcutaneously injected on both sides of the back of mice in a control group and an SX treated group (5 mice/group) to conduct a tumorigenesis experiment. 10 cancers formed subcutaneously at 10 injection sites of 5 mice in the control group, and 8 cancers formed subcutaneously at 10 injection sites of 5 mice in the SX treated group.
Experimental results in FIG. 5 show cancer growth curves and representative cancer photos.

Assay [2] has as its system melanoma cells B16F10, A375, A2058. Put plainly: tumor sphere formation assay of melanoma cells. Type of assay: cell-based. Conditions: 1 μM, 3 μM, or 10 μM, 7 d; FIG. 17. The source says: (§2) As a gold standard for detecting the self-renewal capability of cancer stem cells in vitro, a tumor sphere formation assay may detect individual cancer stem cell that continuously self-renew in a conditioned medium and form tumor spheres consisting of multiple cells. This in vitro experiment is often used to test the responsiveness of clinical patients to anticancer drugs, and guide in vivo medication of the clinical patients.

For assay [3], the system named is prostate cancer cells PC-3, DU145, RM-1. Briefly: tumor sphere formation assay of prostate cancer cells. The assay is classed as cell-based. The note with it: 1 μM, 3 μM, or 10 μM, 7 d; FIG. 19.
From the text: as §2

Assay [4] has as its system kidney cancer cells G-401, 786-O. Briefly: tumor sphere formation assay of kidney cancer cells. The assay is classed as cell-based. Conditions: 1 μM, 3 μM, or 10 μM, 7 d; FIG. 22.
From the text: as §2

Assay [5] relates to pancreatic cancer cells CFPAC-1, PANC-1. Put plainly: tumor sphere formation assay of pancreatic cancer cells. The assay is classed as cell-based. Conditions: 1 μM, 3 μM, or 10 μM, 7 d; FIG. 24.
From the text: as §2

Another assay deals with H460 lung cancer cells. Briefly: subcutaneous tumorigenesis experiment with SX-pretreated lung cancer cells (H460). The note with it: cells treated with 10 μM SX for 7 d. The assay is classed as in vivo, mice. As to the method:
as §1
In FIG. 6A, H460 lung cancer cells were treated with 10 μM salmeterol xinafoate (SX) for 7 d, and cells (3×10^5/mouse) were subcutaneously injected on both sides of the back of mice in a control group (7 mice) and an SX treated group (5 mice) to conduct a tumorigenesis experiment.
Experimental results in FIG. 6 show cancer growth curves and representative cancer photos.

The subject of assay [6] is esophageal cancer cells KYSE-150. Briefly: tumor sphere formation assay of esophageal cancer cells. Type of assay: cell-based. The note with it: 10 μM, 7 d; FIG. 15; P<0.05.
From the text: as §2
According to culture conditions in Table 5, esophageal cancer cells KYSE-150 were subjected to a tumor sphere formation assay, and treated with salmeterol xinafoate (SX) at a concentration of 10 μM.

Assay [7] concerns CAL-27 head and neck cancer cells. Put plainly: subcutaneous tumorigenesis experiment with SX-pretreated head and neck cancer cells. The assay is classed as in vivo, mice. Conditions: cells treated with 10 μM SX for 3 d, 1×10^6/mouse; FIG. 7; P<0.0001 vs control. As to the method: as §1
CAL-27 head and neck cancer cells were treated with 10 μM salmeterol xinafoate (SX) for 3 d, and cells (1×10^6/mouse) were subcutaneously injected on both sides of the back of mice in a control group and an SX treated group (3 mice/group) to conduct a tumorigenesis experiment.
Experimental results in FIG. 7 show cancer growth curves.

The test system of the next assay is osteosarcoma cells U2OS. Briefly: tumor sphere formation assay of osteosarcoma cells. Type of assay: cell-based. The note with it: 1 μM, 3 μM, or 10 μM, 7 d; FIG. 26; P<0.01.
From the text: as §2

Assay [8] relates to liver cancer cells Hep G2. Briefly: tumor sphere formation assay of liver cancer cells. The assay is classed as cell-based. Conditions: 1 μM, 3 μM, or 10 μM, 7 d; FIG. 20.
From the text: as §2

In assay [9] the test system is cancer stem cells of 17 cancers. Briefly: tumor sphere formation assays of cancer cells, summary over 17 cancers. Conditions: summary of Examples 1-9; agonist used alone. The assay is classed as cell-based.
From the text: as §2
Cancer stem cells have self-renewal capability, which determines the initiation and progression of cancers. As a gold standard for detecting the self-renewal capability of cancer stem cells in vitro, a tumor sphere formation assay may detect individual cancer stem cells that continuously self-renew in a conditioned medium and form tumor spheres consisting of multiple cells.

The test system of a further assay is bladder cancer cells RT4. Put plainly: tumor sphere formation assay of bladder cancer cells. The assay is classed as cell-based. The note with it: 1 μM, 3 μM, or 10 μM, 7 d; FIG. 16.
From the text: as §2

Assay [10] deals with gastric cancer cells SNU-1. Briefly: tumor sphere formation assay of gastric cancer cells. The assay is classed as cell-based. Conditions: 10 μM, 7 d; FIG. 23; P<0.001.
From the text: as §2
According to culture conditions in Table 13, gastric cancer cells SNU-1 were subjected to a tumor sphere formation assay, and treated with salmeterol xinafoate (SX) at a concentration of 10 μM.

The subject of another assay is a variety of cancers. Briefly: orthotopic or subcutaneous tumorigenesis experiments in mice, summary. The note with it: summary of in vivo tumorigenesis experiments; drug concentration of 10 μM. The method, then:
as §1

The test system of assay [11] is breast cancer cells MDA-MB-231, 4T1, 168FARN, 67NR, 4TO7. Briefly: tumor sphere formation assay of breast cancer cells. The assay is classed as cell-based. The note with it: 1 μM, 3 μM, or 10 μM, 7 d; FIG. 11.
From the text: as §2
Experimental results in FIG. 11 show the number of tumor spheres from at least 3 independent experiments and representative tumor sphere photos.

Another assay relates to RT4 bladder cancer cells. Briefly: subcutaneous tumorigenesis experiment with SX-pretreated bladder cancer cells. The assay is classed as in vivo, mice. Conditions: cells treated with 10 μM SX for 3 d, 1×10^6/mouse; FIG. 9; P<0.0001 vs control. The method, then:
as §1
RT4 bladder cancer cells were treated with 10 μM salmeterol xinafoate (SX) for 3 d, and cells (1×10^6/mouse) were subcutaneously injected on both sides of the back of mice in a control group and an SX treated group (5 mice/group) to conduct a tumorigenesis experiment.
Experimental results in FIG. 9 show cancer growth curves.

Assay [12] concerns ovarian cancer cells SKOV3. Put plainly: tumor sphere formation assay of ovarian cancer cells. Type of assay: cell-based. Conditions: 1 μM, 3 μM, or 10 μM, 7 d; FIG. 21.
From the text: as §2

A further assay deals with hematoma cells SU-DHL-8. Put plainly: tumor sphere formation assay of hematoma cells. Type of assay: cell-based. Conditions: 1 μM, 3 μM, or 10 μM, 7 d; FIG. 18.
From the text: as §2

For assay [13], the system named is cervical cancer cells Hela. Put plainly: tumor sphere formation assay of cervical cancer cells. Type of assay: cell-based. Conditions: 1 μM, 3 μM, or 10 μM, 7 d; FIG. 27.
From the text: as §2

In assay [14] the test system is head and neck cancer cells CAL-27. Briefly: tumor sphere formation assay of head and neck cancer cells. The assay is classed as cell-based. The note with it: 1 μM, 3 μM, or 10 μM, 7 d; FIG. 14.
From the text: as §2

Structures are written as SMILES.

As for `OCc1cc(C(O)CNCCCCCCOCCCCc2ccccc2)ccc1O` (stereo not shown) [salmeterol xinafoate], the “cancers formed subcutaneously at injection sites” value in assay [1] (1×10^5/mouse, 10 injection sites of 5 mice, control group 10) is listed as 8; in the assay on H460 lung cancer cells (3×10^5/mouse, 10 injection sites of 5 mice, control group 11 at 14 sites), “no cancers formed”. The “cancer growth curves (initiation and progression)” value in assay [1] (FIG. 5, P<0.0001 vs control) was “inhibits the initiation and progression of subcutaneous colorectal cancer”; in the assay on H460 lung cancer cells (FIG. 6A, P<0.0001 vs control), “inhibits the initiation and progression of subcutaneous lung cancer”; in assay [7], “inhibits the initiation and progression of subcutaneous head and neck cancer”; with RT4 bladder cancer cells, “inhibits the initiation and progression of subcutaneous bladder cancer”. Besides, the “number of tumor spheres (self-renewal capability of cancer stem cells)” value (“number of tumor spheres” below) in assay [2] is “inhibited the self-renewal capability of the melanoma stem cells in a concentration dependent manner”; in assay [3], “inhibited the self-renewal capability of the prostate cancer stem cells in a concentration dependent manner”; in assay [4], “inhibited the self-renewal capability of the kidney cancer stem cells in a concentration dependent manner”; in assay [5], “inhibited the self-renewal capability of the pancreatic cancer stem cells in a concentration dependent manner”; in [6] it was “inhibited the self-renewal capability of the esophageal cancer stem cells”; in the assay on osteosarcoma cells U2OS it was “inhibited the self-renewal capability of the osteosarcoma cancer stem cells”. For the same compound, the “number of tumor spheres” value was “inhibited the self-renewal capability of the liver cancer stem cells in a concentration dependent manner” in assay [8]; “inhibited the self-renewal capability of the bladder cancer stem cells in a concentration dependent manner” with bladder cancer cells RT4; “inhibited the self-renewal capability of the gastric cancer stem cells” in assay [10]; “inhibited the self-renewal capability of the breast cancer stem cells in a concentration dependent manner” in assay [11]; “inhibited the self-renewal capability of the ovarian cancer stem cells in a concentration dependent manner” in assay [12]; “inhibited the self-renewal capability of the hematoma stem cells in a concentration dependent manner” with hematoma cells SU-DHL-8. In addition, the “number of tumor spheres” value was “inhibited the self-renewal capability of the cervical cancer stem cells in a concentration dependent manner” in assay [13]; “inhibited the self-renewal capability of the head and neck cancer stem cells” in assay [14]. Besides, the “self-renewal capability of cancer stem cells” value in assay [9] is reported as “can significantly inhibit the self-renewal capability of cancer stem cells of 17 cancers”. The “cancer initiation and cancer growth” value with a variety of cancers is listed as “not only inhibiting cancer initiation but also significantly inhibiting cancer growth”.

The values above are taken from patent US20260216103A1, “USE OF LONG-ACTING ß2AR AGONIST IN PREPARATION OF DRUGS FOR TREATING CANCERS” (HONG KONG SXMETEROL PHARMACEUTICAL CO., LIMITED, priority 2023, published 2026).
